In publication PMC8391312 (Biomedicines, 2021):

Design: species or system BALB/cAnNHsd mice
Conditions: mouse, in vivo, ip

insulin: recombinant insulin (Humalog, Eli-Lilly), positive control in glucose tolerance test
blood glucose levels compared to the PBS and s-cal14.2b groups 30 min after administration: significantly lower
change of blood glucose levels compared to the PBS control group after five minutes: did not significantly change
